Earlier results, collected in US20100247645A1 (priority 2007, published 2010).

Conditions: class 3 = high solubility, low permeability

BCS (biopharmaceutical classification system) class: class 3
Compound: COCCCOc1cc(C[C@@H](C[C@H](N)[C@@H](O)C[C@H](C(=O)NCC(C)(C)C(N)=O)C(C)C)C(C)C)ccc1OC [Aliskiren, 2(S),4(S),5(S),7(S)—N-(3-amino-2,2-dimethyl-3-oxopropyl)-2,7-di(1-methylethyl)-4-hydroxy-5-amino-8-[4-methoxy-3-(3-methoxy-propoxy)phenyl]-octanamide]
